Assay results taken from patent US4720483A, “Oligopeptides and intermediates and processes for their manufacture” (Ciba-Geigy Corporation, priority 1985, dated 1988).
Counter-ions that a name gives are not always drawn.

Assay: vasodilatory and cardiovascular actions in femtomol dosages, with and without blockers of the sympathetic nervous system
Type: in vivo
Conditions: blocker of the sympathetic nervous system
From the text: In femtomol dosages, the peptide-amides according to the invention have a vasodilatory action and result in a reduction of the blood pressure and an increase in the heart rate and in the contractility of the myocardium. The actions are not affected by blockers of the sympathetic nervous system, for example metoprolol [1-isopropylamino-3-(4-{2-methoxyethyl}phenoxy)-propan-2-ol] and Trandate® (labetalol hydrochloride), whereas the action of noradrenalin and of adrenalin in serum is suppressed by those substances.

| Structure (SMILES) | action of noradrenalin and of adrenalin in serum |
| --- | --- |
| CC(CCc1ccccc1)NCC(O)c1ccc(O)c(C(N)=O)c1 (centres unmarked) [Trandate, labetalol hydrochloride] | suppressed |
| COCCc1ccc(OCC(O)CNC(C)C)cc1 (centres unmarked) [metoprolol, 1-isopropylamino-3-(4-{2-methoxyethyl}phenoxy)-propan-2-ol] | suppressed |
